According to patent US20240300908A1, “CHIRAL 3-SULFINYL BENZOIC ACIDS” (BAYER AKTIENGESELLSCHAFT, priority 2021, published 2024):

Test: HPLC (H3PO4) log P determination
Assay type: physicochemical

chromatographic logP	Compound	log P
	C[S+]([O-])c1c(C(F)(F)F)ccc(C(=O)O)c1Cl (racemic) [Example 1 Step 1, 2-chloro-3-[(S,R)-methylsulfinyl]-4-(trifluoromethyl)benzoic Acid]	0.96
1	C[S@+]([O-])c1c(C(F)(F)F)ccc(C(=O)O)c1Cl [Example 1, 2-chloro-3-[(S)-methylsulfinyl]-4-(trifluoromethyl)benzoic acid]	
